From patent US20260008783A1, “MODULATORS OF FSHR AND USES THEREOF” (Celmatix Inc., priority 2022, published 2026)
pIC50: −log10 of the molar value.

Target: T1, Follicle Stimulating Hormone Receptor (FSHR) (Homo sapiens, UniProt P23945)
T1 construct: HA (N); expressed in transfected cells; host or cells: CHO-K1, transient transfection, pHM6 vector (CMV promoter)
T1 sequence (P23945 18-695): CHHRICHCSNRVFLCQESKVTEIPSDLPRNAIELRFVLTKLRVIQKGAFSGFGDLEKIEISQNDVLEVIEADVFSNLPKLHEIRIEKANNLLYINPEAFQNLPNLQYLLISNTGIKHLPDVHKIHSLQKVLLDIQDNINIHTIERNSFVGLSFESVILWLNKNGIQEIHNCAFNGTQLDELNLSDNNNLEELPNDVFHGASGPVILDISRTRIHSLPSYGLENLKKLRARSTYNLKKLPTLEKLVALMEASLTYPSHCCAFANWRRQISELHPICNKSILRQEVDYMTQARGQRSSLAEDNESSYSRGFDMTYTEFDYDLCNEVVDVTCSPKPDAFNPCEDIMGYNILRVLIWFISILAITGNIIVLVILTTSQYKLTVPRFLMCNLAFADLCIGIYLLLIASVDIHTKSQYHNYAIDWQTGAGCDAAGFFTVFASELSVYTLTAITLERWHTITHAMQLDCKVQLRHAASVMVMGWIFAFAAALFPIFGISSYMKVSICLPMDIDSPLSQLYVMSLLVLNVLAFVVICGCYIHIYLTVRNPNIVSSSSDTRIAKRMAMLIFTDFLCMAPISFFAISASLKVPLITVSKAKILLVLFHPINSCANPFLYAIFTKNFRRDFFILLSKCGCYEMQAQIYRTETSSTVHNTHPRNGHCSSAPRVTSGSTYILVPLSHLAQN
Assay: HTRF cAMP agonist assay, FSHR, transiently transfected CHO-K1 cells
Assay type: cell-based
Settings: CHO-K1 cells transiently expressing human FSHR, read-out: IC50 FSHR LANCE CAMP
Source text: Example 17. HTRF cAMP Agonist Assay Protocol (for FSHR, TSHR, LHCGR)
Mammalian expression vectors designed to express either Follicle Stimulating Hormone Receptor (FSHR), Thyroid Stimulating Hormone Receptor (TSHR), or Luteinizing Hormone/Choriogonadotropin Receptor (LHCGR), were generated with an HA-tag on the N-terminus. All constructs were expressed under a human cytomegalovirus (CMV) immediate early enhancer and promoter using the pHM6 expression vector. The protein coding region was confirmed by sequence analysis to be in-frame and of the expected sequence, matching the following accession numbers: FSHR NM_000145, TSHR NM_000369, and LHCGR NM_000233.
HTRF cAMP assays were performed using Chinese Hamster Ovary (CHO-K1) cell lines transiently expressing human FSH, TSH, and LHCG receptors. 48 hours before the assay, cells were washed with PBS and then dissociated from tissue culture flasks with 0.25% trypsin. Dissociated cells were quenched in full media (F-12K Medium Corning REF #10-025-CV, 10% Avantor Seradigm FB Essence Cat #10803-034, 1% Penicillin/Streptomycin Cytiva HyClone Cat #SV30010) and then collected by centrifugation at 290×g for 5 min. Cells were resuspended in full media and dispensed into 150 mm cell culture dishes (Nest Scientific Cat #715001), at 2.3×10^6 cells/flask. 7 hours later, cells were transfected using Lipofectamine transfection reagent (Invitrogen Cat #18324020). Briefly, 60 μL of lipofectamine was dispensed into 2 mL of Opti-MEM (Gibco Cat #31985070) and incubated for 5 minutes at room temperature. Then, the mixture was added onto […] of DNA and incubated for another 20 minutes at room temperature. Cells were washed with warm (37° C.) PBS. 17.5 mL of Opti-MEM was dispensed onto the cells, followed by addition of the Opti-MEM/lipofectamine/DNA mixture. Cells were incubated overnight in a 37° C., 5% CO2 cell incubator. 17-19 hours later, Opti-MEM was aspirated off the cells and replaced with full media. Cells were incubated for another 24 hours in a 37° C., 5% CO2 cell incubator.
On the day of the assay, cells were washed with PBS and then dissociated from tissue culture flasks with 0.25% trypsin. Dissociated cells were quenched in full media and then collected by centrifugation at 290×g for 5 min. Cells were resuspended in PBS^+/+ (Corning REF #20-030-CV) to a concentration of 2×10^5 cells/mL. 10 μL/well of cells (2,000 cells/well) were dispensed into 384-well Corning plates (REF #3825), in triplicate. Cells were incubated at room temperature for 2 hours.
Example FSHR Modulator compounds were diluted in assay buffer (PBS^+/+, 0.05% BSA Sigma-Aldrich A3059, 500 μM IBMX Sigma-Aldrich 15879) to 3.5× the final assay concentration. 4 μL of test agonist was added to the cells and incubated for 1 hour at room temperature. 10 μL of cAMP detection reagents (LANCE Ultra cAMP Detection Kit PerkinElmer TRF0264) were dispensed onto the cells and plates were incubated for 2 hours at room temperature (cAMP detection reagents were made according to the PerkinElmer kit protocol). Plates were read on an Envision plate reader following PerkinElmer guidelines.
Raw data for all assays was transmitted directly from plate readers into a database for processing. All assay plates contained both positive and negative control wells to allow for data normalization and scaling. In agonist assays, negative control wells contained assay buffer and positive control wells contained […] positive control (10 nM Follicle Stimulating Hormone Sigma-Aldrich F4021, 50 nM Thyroid Stimulating Hormone Sigma-Aldrich 869006, 50 nM Luteinizing Hormone MyBioSource MBS5308806, for their respective receptors). All control wells contained DMSO at a final assay concentration that matched the test compound wells. […]
Percent control data were analyzed by non-linear regression with a sigmoidal dose response algorithm in the database to yield potency and efficacy data.

In order of rising pIC50:
1. C[C@H]1CNC(=O)[C@H](C)N1C(=O)c1nn(-c2ccccn2)c2c1CCc1ccc(-c3cccnc3)cc1-2 [Compound 8-79]  5.22
2. CCC1C(=O)NCCN1C(=O)c1nn(-c2ccccn2)c2c1CCc1ccc(-c3cccnc3)cc1-2 (stereo not shown) [Compound 8-78]  5.61
3. COc1cc2c(cc1-c1cncc(C(N)=O)c1)-c1c(c(C(=O)N3CCNC(=O)C3(C)C)nn1CC(C)C)CC2 [Compound 13-09, 5-[3-(2,2-dimethyl-3-oxo-piperazine-1-carbonyl)-1-isobutyl-7-methoxy-4,5-dihydrobenzo[g]indazol-8-yl]pyridine-3-carboxamide]  5.67
4. COc1cc2c(cc1-c1cncc(C(N)=O)c1)-c1c(c(C(=O)N3CCOCC3(C)C)nn1C(C)C)CC2 [Compound 9-12]  6.15
5. CC1(C)C(=O)NCCN1C(=O)c1nn(-c2cc(Cl)cc(Cl)c2)c2c1CCc1ccc(-c3cncc(C(N)=O)c3)cc1-2 [Compound 15-04, 5-[1-(3,5-dichlorophenyl)-3-(2,2-dimethyl-3-oxo-piperazine-1-carbonyl)-4,5-dihydrobenzo[g]indazol-8-yl]pyridine-3-carboxamide]  6.42
6. COc1cc2c(cc1-c1cncc(C(N)=O)c1)-c1c(c(C(=O)N3CCC(S(C)(=O)=O)CC3C)nn1-c1cc(Cl)cc(Cl)c1)CC2 (stereo not shown) [Compound 8-13, 5-[1-(3,5-dichlorophenyl)-7-methoxy-3-(2-methyl-4-methylsulfonyl-piperidine-1-carbonyl)-4,5-dihydrobenzo[g]indazol-8-yl]pyridine-3-carboxamide]  6.61
7. COc1cc2c(cc1-c1cncc(C(N)=O)c1)-c1c(c(C(=O)N3CCNC(=O)C3(C)C)nn1-c1cc(Cl)cc(Cl)c1)S(=O)(=O)C2 [Compound 12-12]  6.64
8. COc1cc2c(cc1-c1ccn(C)n1)-c1c(c(C(=O)N(C)C(C)(C)C)nn1-c1cc(Cl)cc(Cl)c1)OC2 [Compound 2-06]  6.71
9. COc1cc2c(cc1-c1cncc(C(N)=O)c1)-c1c(c(C(=O)N(C)C3CCS(=O)(=O)C3)nn1-c1cc(Cl)cc(Cl)c1)CC2 (stereo not shown) [Compound 8-46]  6.75
10. COc1cc2c(cc1-c1ccn(C)n1)-c1c(c(C(=O)N3CCOCC3(C)C)nn1-c1ccsc1)C2 [Compound 5-07, (3,3-dimethylmorpholin-4-yl)-[6-methoxy-7-(1-methylpyrazol-3-yl)-1-(3-thienyl)-4H-indeno[1,2-c]pyrazol-3-yl]methanone]  6.94
11. COc1cc2c(cc1-c1cncc(C(N)=O)c1)-c1c(c(C(=O)N3CCN(C)C(=O)C3(C)C)nn1-c1cc(Cl)cc(Cl)c1)CC2 [Compound 8-69]  7.09
12. COc1cc2c(cc1-c1cncc(C(N)=O)c1)-c1c(c(C(=O)N3C4CC3CN(C(=O)OC(C)(C)C)C4)nn1-c1cc(Cl)cc(Cl)c1)CC2 [Compound 8-16A]  7.10
13. COc1cc2c(cc1-c1cncc(C(N)=O)c1)-c1c(c(C(=O)N3CCNC(=O)C3(C)C)nn1-c1cc(Cl)cc(Cl)c1)OC2 [Compound 12-18]  7.17
14. COc1cc2c(cc1-c1cncc(C(N)=O)c1)-c1c(c(C(=O)N(C)C(C)(C)C)nn1-c1cc(Cl)cc(Cl)c1)[S+]([O-])C2 (single isomer, unassigned) [Compound 3-06]  7.36
15. COc1cc2c(cc1-c1cncc(C(N)=O)c1)-c1c(c(C(=O)N3CCCC(=O)C3)nn1-c1cc(Cl)cc(Cl)c1)CC2 [Compound 8-83]  7.41
16. COc1cc2c(cc1-c1cncc(C(N)=O)c1)-c1c(c(C(=O)N3[C@@H](C)CNC[C@@H]3C)nn1-c1cc(Cl)cc(Cl)c1)CC2 [Compound 8-22]  7.46
17. COc1cc2c(cc1-c1cncc(C(N)=O)c1)-c1c(c(C(=O)N3COCC3(C)C)nn1-c1cc(Cl)cc(Cl)c1)S(=O)(=O)C2 [Compound 12-07]  7.67
18. COc1cc2c(cc1-c1cncc(C(N)=O)c1)-c1c(c(C(=O)N3CCNCC3C)nn1-c1cc(Cl)cc(Cl)c1)CC2 (stereo not shown) [Compound 8-01, 5-[1-(3,5-dichlorophenyl)-7-methoxy-3-(2-methylpiperazine-1-carbonyl)-4,5-dihydrobenzo[g]indazol-8-yl]pyridine-3-carboxamide]  7.68
19. COc1cc2c(cc1-c1cncc(C#N)c1)-c1c(c(C(=O)N3CCNC(=O)C3(C)C)nn1-c1cc(Cl)cc(Cl)c1)CC2 [Compound 8-26A]  7.99
20. COc1cc2c(cc1-c1cncc(C(N)=O)c1)-c1c(c(C(=O)N3CCCC3C)nn1-c1cc(Cl)cc(Cl)c1)CC2 (stereo not shown) [Compound 8-38]  8.04
21. COc1cc2c(cc1-c1cncc(C(N)=O)c1)-c1c(c(C(=O)N(C)C(C)C3CC3)nn1-c1cc(Cl)cc(Cl)c1)CC2 (stereo not shown) [Compound 8-42]  8.17
22. COc1cc2c(cc1-c1cncc(C(N)=O)c1)-c1c(c(C(=O)N3CCOCC3(C)C)nn1-c1ccccc1)CC2 [Compound 9-17]  8.25
23. COc1cc2ccc3c(C(=O)N4CCOCC4(C)C)nn(-c4cc(Cl)cc(Cl)c4)c3c2cc1-c1cncc(C(N)=O)c1 [Compound 6-05, 5-[1-(3,5-dichlorophenyl)-3-(3,3-dimethylmorpholine-4-carbonyl)-7-methoxy-benzo[g]indazol-8-yl]pyridine-3-carboxamide]  8.28
24. COc1cc2c(cc1-c1cncc(C(N)=O)c1)-c1c(c(C(=O)N3CCOCC3(C)C)nn1-c1ccccn1)CC2 [Compound 10-01, 5-[3-(3,3-dimethylmorpholine-4-carbonyl)-7-methoxy-1-(2-pyridyl)-4,5-dihydrobenzo[g]indazol-8-yl]pyridine-3-carboxamide]  8.30
25. COc1cc2c(cc1-c1cncc(C(N)=O)c1)-c1c(c(C(=O)N3CCCC3(C)C)nn1-c1cc(Cl)cc(Cl)c1)CC2 [Compound 8-14]  8.46
26. COc1cc2c(cc1-c1cncc(C(N)=O)c1)-c1c(c(C(=O)N3CCOCC3(C)C)nn1-c1cc(Cl)cc(Cl)c1)OC2 [Compound 2-01, 5-[1-(3,5-dichlorophenyl)-3-(3,3-dimethylmorpholine-4-carbonyl)-7-methoxy-5H-isochromeno[4,3-c]pyrazol-8-yl]pyridine-3-carboxamide]  8.46
27. COc1cc2c(cc1-c1cncc(C(N)=O)c1)-c1c(c(C(=O)N3CCOC3(C)C)nn1-c1cc(Cl)cc(Cl)c1)CC2 [Compound 8-51, 5-(1-(3,5-dichlorophenyl)-3-(2,2-dimethyloxazolidine-3-carbonyl)-7-methoxy-4,5-dihydro-1H-benzo[g]indazol-8-yl)nicotinamide]  8.51
28. COc1cc2c(cc1-c1cncc(C(N)=O)c1)-c1c(c(C(=O)N3CCOCC3(C)C)nn1-c1cc(F)cc(F)c1)CC2 [Compound 9-18]  9.21
